Assay results: patent US20090082427A1, “Composition comprising wortmannin and its topical use for reducing human hair growth” (Reckitt Benckiser (UK) Limited, priority 2005, published 2009)

Columns and labels:
Assay type in all cases: cell-based, human
dermal fibroblasts = experiment: cell proliferation of dermal fibroblasts, cell number after 8 days; conditions: wortmannin 70 μm in medium, CV (medium + DMSO vehicle) = 100
Procedure: (§1) A study was carried out to assess the effects of wortmannin on cell proliferation for dermal fibroblasts, follicular dermal papilla fibroblasts derived from 5 normal adults (3 females and 2 males).
(§2) A composition was prepared comprising wortmannin at 10 milli-molar in a vehicle of dimethyl sulfoxide (DMSO). The levels of wortmannin were such that when the composition was added to the growth medium in the experiments, the level of wortmannin in the experimental medium was 50, 70, 100 or 140 micro-molar and the respective level of DMSO was 0.5%, 0.7%, 1.0%, 1.4% by weight.
(§3) The control experiments were carried out using as the growth medium CM (control medium only as detailed below) and CV (control medium containing the DMSO vehicle but free of wortmannin). The experiments using the wortmannin composition were carried out using the wortmannin compositions in the control medium.
(§4) For experiments with dermal fibroblasts and follicular dermal papilla fibroblasts, Control Medium was RPMI 1640 media supplemented with penicillin/streptomycin, L-glutamine and Foetal Calf Serum.
(§5) Results in terms of percentage cell number change after 8 days of the cells/follicles in the compositions were as follows in table 1.

[1] = system: hair follicle keratinocytes; experiment: cell proliferation of hair follicle keratinocytes, cell number after 8 days; conditions: CV = 100
Procedure: A study carried out to assess the effects of wortmannin on cell proliferation for hair follicle keratinocytes was performed on cells from 1 normal healthy individual.
as §2, §3
For experiments with hair follicle keratinocytes, Control Medium was keratinocyte serum-free medium (KSF-M) medium supplemented with penicillin/streptomycin, L-glutamine, epidermal growth factor and bovine pituitary extract.
as §5

[2] = system: Anagen (IV) intact hair follicles; experiment: growth of isolated intact Anagen (IV) hair follicles, length increase after 8 days; conditions: CM 26, CV 9
Procedure: A study was carried out to assess the effects of wortmannin on growth of Anagen (IV) intact hair follicles isolated intact from 2 females.
as §2, §3
For experiments with intact hair follicle, Control Medium was Williams E medium supplemented with fungizone, penicilin/streptomycin, L-glutamine, insulin-like growth factor and hydrocortisone.
as §5

[3] = system: follicular dermal papilla fibroblasts; experiment: cell proliferation of follicular dermal papilla fibroblasts, cell number after 8 days; conditions: wortmannin 70 μm in medium, CV = 100
Procedure: as §1, §2, §3, §4, §5

COC[C@H]1OC(=O)c2coc3c2[C@@]1(C)C1=C(C3=O)[C@@H]2CCC(=O)[C@@]2(C)C[C@H]1OC(C)=O [wortmannin, 11-(acetyloxy)-1,6b,7,8,9a,10,11,11b-octahydro-1-(methoxymethyl)-9a,11b-di-methyl-[1S-(1α, 6bα,9aβ,11α, 11bβ)]-3H-furo[4,3,2-de]indeno[4,5-h]-2-benzopyran-3,6,9-trione]
Dermal fibroblasts percentage cell number (normalized on CV results) (dermal fibroblasts): 25% | Hair follicle keratinocytes percentage cell number (normalized on CV results) ([1]; wortmannin 50 μm in medium): 75% | Hair follicle keratinocytes percentage cell number (normalized on CV results) ([1]; wortmannin 70 μm in medium): 40% | Hair follicle keratinocytes percentage cell number (normalized on CV results) ([1]; wortmannin 100 μm in medium): 30% | Whole hair follicles (length increase in %) ([2]; wortmannin 70 μm in medium): 4% | Whole hair follicles (length increase in %) ([2]; wortmannin 140 μm in medium): 4% | dermal papilla fibroblasts percentage cell number (normalized on CV results) [3]: 34%
